Assay [1] is described as follows: off-target signal loss in HeLa-CEM21 co-culture – HeLa F-luc CTL cells, cherry-picked, counter-screen for HIV-1 Env fusion inhibitor project, dose response (AID 652040).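 Further: potency for signal decrease marking cytotoxic or nonspecific inhibition.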 The class given is functional, cell-based.
The nature of assay [2]: inhibitors of SNCA 5'UTR-driven reporter translation, confirmation, H4 neuroglioma cells, luminescence (AID 1988). The class given is functional, cell-based.
Assay [3] is described as follows: cytotoxicity in HEK-293T cells, dose response, cytotoxicity control for BCR NF-kB inhibitor project, luminescence, B-cell screen hits (AID 489021).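 Further: HEK-293T cells carrying an NF-kB luciferase reporter; cells exposed to compound for about 14 hours before viability readout.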 The class given is functional, cell-based.
Assay [4] in a line: PAX5 activity inhibitors, dose response, selectivity assay for PAX8 inhibitor project, cell-based, plate reader, dry powder samples (AID 743047).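 Further: HEK293 cells carrying a Pax5 driven CD19 promoter luciferase reporter; potency of inhibitors that lower reporter luminescence.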 The class given is functional.
Assay [5] in a line: MC4R antagonists, dose response, counter-screen for LGR2 antagonist project, cell-based, plate reader, cherry pick (AID 743444).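 Further: transfected HEK 293 cells stimulated with alpha-MSH peptide; potency of inhibitors of the alpha-MSH evoked signal.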 It is filed as functional. A general note: Counterscreens check selectivity or assay interference.
Assay [6] can be described thus: LGR2 antagonists, dose response, cell-based, HEK293, CRE-luciferase reporter, cherry pick, set 2 (AID 743343).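 Further: transfected cells were stimulated with diluted bursicon conditioned medium after compound addition.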 The class given is functional.
Assay [7] is described as follows: Luminescence Cell-Based Dose Response HTS to Identify Inhibitors of 5'UTR Stem-Loop Driven Prion Protein mRNA Translation in H4 Neuroglioblastoma Cells. [Related pubchem assays: 1827 (Project Summary), 1813 (Primary HTS)]. The class given is functional.
Assay [8] can be described thus: PAX2 cell-based inhibition, dose response, selectivity assay for PAX8 inhibitor project, plate reader, dry powder samples (AID 743048).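 Further: HEK293 cells carrying a WT1 promoter luciferase reporter driven by expressed Pax2; potency is for inhibition of Pax2 driven reporter signal.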 The class given is functional.
A short description of assay [9]: ZM109 Env clade C HIV-1 fusion inhibitors, dose response, HeLa effector, CEM target cells, luciferase, cherry-pick (AID 652058). The class given is functional, cell-based.
Assay [10] addresses Heat shock protein HSP 90-alpha (Homo sapiens, UniProt P07900). The assay is described as follows: Luminescence-based dose response biochemical high throughput screening assay for inhibitors of the Heat Shock Protein 90 (HSP90). [Related pubchem assays: 1831 (Summary AID.), 1846 (Confirmation screen.), 1789 (Primary screen.)].
The nature of assay [11]: inhibitors of clade B AD8 Env fusion, dose response, cell-based, cherry-pick (AID 652062).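 Further: luciferase signal from cell-cell fusion driven by HIV-1 clade B AD8 Env; potency is for inhibitors of fusion seen as a drop in luminescence.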 The class given is functional.
Another assay deals with Paired box protein Pax-8 (Homo sapiens, UniProt Q06710). The assay is described as follows: inhibitors of PAX8-driven TPO luciferase reporter, dose response, RMG-I cells, cherry-pick (AID 687027).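 Further: luciferase reporter driven by Pax8 target thyroperoxidase promoter measured by SteadyGlo luminescence.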 It is filed as functional, cell-based.
Chain of Paired box protein Pax-8 (Q06710 whole entry, the tested form may be a part): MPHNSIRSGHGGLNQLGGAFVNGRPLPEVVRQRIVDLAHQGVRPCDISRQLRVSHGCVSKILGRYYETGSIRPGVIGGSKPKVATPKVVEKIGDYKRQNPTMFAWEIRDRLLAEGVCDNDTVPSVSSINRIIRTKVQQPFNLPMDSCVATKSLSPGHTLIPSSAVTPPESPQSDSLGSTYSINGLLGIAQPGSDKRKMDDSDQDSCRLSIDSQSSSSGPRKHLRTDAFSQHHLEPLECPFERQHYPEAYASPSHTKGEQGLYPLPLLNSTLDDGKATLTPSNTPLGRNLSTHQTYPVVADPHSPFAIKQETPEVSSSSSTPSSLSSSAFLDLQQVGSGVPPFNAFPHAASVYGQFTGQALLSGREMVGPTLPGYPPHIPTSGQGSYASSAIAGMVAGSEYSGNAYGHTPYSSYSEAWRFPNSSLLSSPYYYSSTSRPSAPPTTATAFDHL
Assay [12] is described as follows: inhibitors of HIV Env-driven cell fusion, dose response, cherry-pick (AID 652057). It is filed as functional, cell-based.
Assay [13] in a line: inhibitors of firefly luciferase expression or activity, dose response, H4 neuroglioma cells, luminescence (AID 1990). The class given is functional, cell-based.
A short description of assay [14]: cytotoxicity dependent on PAX8, dose response, cell-based, plate reader, dry powder (AID 743049). It is filed as functional.
The nature of assay [15]: Vero cell cytotoxicity, dose response, cytotoxicity control for Vif-APOBEC3G degradation inhibitor project, Vero cells (AID 1117358). It is filed as functional. The settings on record: Human immunodeficiency virus 1, Vero.

The structures appear in SMILES notation. Active and inactive are the calls of the source.

Regarding `O=C(CN1C(=O)c2ccccc2S1(=O)=O)c1ccccc1Cl`, the AC50 (commonly the midpoint of the concentration-response curve, whichever way the signal moves) was 1.52 µM (active) in assay [1]; 7.1 µM (active) in assay [4]; 0.805 µM (active) in assay [5]; 0.665 µM (active) in [6]; 9.61 µM (active) in assay [8]; 12.5 µM (active) in assay [9]. For the same molecule, the AC50 in assay [11] was 4.22 µM (active); on Paired box protein Pax-8, 7.18 µM (active); in [12], 2.17 µM (active); in assay [14], > 100 µM (inactive). For the same molecule, the values for the 50% effective concentration (EC50) in assay [2], in assay [7] and in [13] were 0.104 µM (active), 0.364 µM (active) and 0.283 µM (active), respectively. In addition, the figures for the IC50 in assay [3] and in assay [10] were > 80 µM (inactive) and 4.2 µM (active), respectively.
Turning to `CC(=O)CSc1nnc(-c2ccc3c(c2)OCO3)o1`, the concentration for half-maximal inhibition (IC50) (in general, the midpoint of a concentration-inhibition curve) in assay [10] is 9.39 µM (active).
On to `COc1cc(NC(=O)NCCN2CCN(c3ccc(Cl)cc3)CC2)ccc1C`, for which the EC50 (usually the concentration that produces a half-maximal response) was > 120 µM (not active) in [2], > 120 µM (not active) in [7] and 20.5 µM (active) in [13]. In addition, the cytotoxic concentration (CC50) (commonly the concentration at which the toxic effect on the cells reaches its halfway point) in assay [15] was > 40 µM (active).
As to `CC(C)(C)c1ccc(-c2nnc(SCCC#N)n2C2CCCC2)cc1`, in assay [15], the CC50 is > 40 µM (active).

Source of the values: ChEMBL document CHEMBL1201862, “PubChem BioAssay data set” (2004).
